Experimental data: patent US7384965B2, “Fused heterocyclic derivatives as PPAR modulators” (Eli Lilly and Company, priority 2003, dated 2008)

melting point	SMILES
214 to 216 °C	Cc1cc(SCc2cccc3[nH]c(-c4ccc(C(F)(F)F)cc4)nc23)ccc1CCC(=O)O [Example 86, 3-{2-Methyl-4-[2-(4-trifluoromethylphenyl)-1H-benzoimidazol-4-ylmethylsulfanyl]phenyl}propionic Acid]
168 to 170 °C	O=C(O)Cc1csc2cc(SCc3cccc4sc(-c5ccc(C(F)(F)F)cc5)nc34)ccc12 [Example 43]
65 to 70 °C	Cc1cc(SCc2ccnc3sc(-c4ccc(C(F)(F)F)cc4)nc23)ccc1CCC(=O)O [Example 101, 3-{2-Methyl-4-[2-(4-trifluoromethylphenyl)thiazolo[5,4-b]pyridin-7-ylmethylsulfanyl]phenyl}propionic Acid]
118 to 120 °C	Cc1cc(SCCc2cccc3sc(-c4ccc(C(F)(F)F)cc4)nc23)ccc1CCC(=O)O [Example 49, 3-(2-Methyl-4-{2-[2-(4-trifluoromethylphenyl)benzothiazol-4-yl]ethylsulfanyl}phenyl)propionic Acid]
174 to 176 °C	Cc1cc(OCc2ccc3sc(-c4ccc(C(F)(F)F)cc4)nc3c2)ccc1CCC(=O)O [Example 54, 3-{2-Methyl-4-[2-(4-trifluoromethylphenyl)benzothiazol-5-ylmethoxy]phenyl}propionic Acid]
180 to 182 °C	Cc1cc(SCc2ccnc3[nH]c(-c4ccc(C(F)(F)F)cc4)nc23)ccc1CCC(=O)O [Example 104, 3-{2-Methyl-4-[2-(4-trifluoromethylphenyl)-3H-imidazo[4,5-b]pyridin-7-ylmethylsulfanyl]phenyl}propionic Acid]
138 to 140 °C	Cc1cc(SCc2ccc3sc(-c4ccc(C(F)(F)F)cc4)nc3c2)ccc1OCC(=O)O [Example 51, 2-Methyl-4-[2-(4-trifluoromethylphenyl)benzothiazol-5-ylmethylsulfanyl]phenoxyacetic Acid]
168 to 170 °C	Cc1cc(SCc2cccc3c2nc(-c2ccc(C(F)(F)F)cc2)n3C)ccc1CCC(=O)O [Example 90, 3-{2-Methyl-4-[1-methyl-2-(4-trifluoromethylphenyl)-1H-benzoimidazol-4-ylmethylsulfanyl]phenyl}propionic Acid]
159 to 161 °C	Cc1cc(SC(C)c2ccc3nc(-c4ccc(C(F)(F)F)cc4)sc3c2)ccc1CCC(=O)O (racemic) [Example 63, (+/−)-3-(2-Methyl-4-{1-[2-(4-trifluoromethylphenyl)benzothiazol-6-yl]ethylsulfanyl}phenyl)propionic Acid]
141 to 143 °C	Cc1cc(SCc2ccc3sc(-c4ccc(C(F)(F)F)cc4)nc3c2)ccc1CCC(=O)O [Example 52, 3-{2-Methyl-4-[2-(4-trifluoromethylphenyl)benzothiazol-5-ylmethylsulfanyl]phenyl}propionic Acid]
155 to 157 °C	Cc1cc(SCc2cccc3nc(-c4ccc(C(F)(F)F)cc4)oc23)ccc1CCC(=O)O [Example 69, 3-{2-Methyl-4-[2-(4-trifluoromethylphenyl)benzooxazol-7-ylmethylsulfanyl]phenyl}propionic Acid]
84 to 86 °C	CCc1cc(SCCc2cccc3sc(-c4ccc(C(F)(F)F)cc4)nc23)ccc1OCC(=O)O [Example 50, 2-Ethyl-4-{2-[2-(4-trifluoromethylphenyl)benzothiazol-4-yl]ethylsulfanyl}phenoxyacetic Acid]
136 to 139 °C	Cc1cc(SCc2cccc3nc(-c4ccc(C(F)(F)F)cc4)sc23)ccc1CCC(=O)O [Example 46, 3-{2-Methyl-4-[2-(4-trifluoromethylphenyl)benzothiazol-7-ylmethylsulfanyl]phenyl}propionic Acid]

Further lines, the compound ahead of its results:

SMILES	melting point
Cc1cc(SCc2cccc3c2nc(-c2ccc(C(F)(F)F)cc2)n3C)ccc1OCC(=O)O [Example 89, 2-Methyl-4-[1-methyl-2-(4-trifluoromethylphenyl)-1H-benzoimidazol-4-ylmethylsulfanyl]phenoxyacetic Acid]	192 to 194 °C
CCc1cc(SCc2ccc3sc(-c4ccc(C(F)(F)F)cc4)nc3c2)ccc1OCC(=O)O [Example 53, 2-Ethyl-4-[2-(4-trifluoromethylphenyl)benzothiazol-5-ylmethylsulfanyl]phenoxyacetic Acid]	140 to 142 °C
CCc1cc(SC(C)c2cccc3nc(-c4ccc(C(F)(F)F)cc4)oc23)ccc1OCC(=O)O (racemic) [Example 81, (+/−)-2-Ethyl-4-{1-[2-(4-trifluoromethylphenyl)benzooxazol-7-yl]ethylsulfanyl}phenoxyacetic Acid]	172 to 175 °C
CCc1cc(SCc2ccnc3[nH]c(-c4ccc(C(F)(F)F)cc4)nc23)ccc1OCC(=O)O [Example 105, 2-Ethyl-4-[2-(4-trifluoromethylphenyl)-3H-imidazo[4,5-b]pyridin-7-ylmethylsulfanyl]phenoxyacetic Acid]	188 to 190 °C
Cc1cc(SCc2ccnc3oc(-c4ccc(C(F)(F)F)cc4)nc23)ccc1OCC(=O)O [Example 95, 2-Methyl-4-[2-(4-trifluoromethylphenyl)oxazolo[5,4-b]pyridine-7-ylmethylsulfanyl]phenoxyacetic Acid]	154 to 157 °C
CCc1cc(SCc2cccc3[nH]c(-c4ccc(C(F)(F)F)cc4)nc23)ccc1OCC(=O)O [Example 87, 2-Ethyl-4-[2-(4-trifluoromethylphenyl)-1H-benzoimidazol-4-ylmethylsulfanyl]phenoxyacetic Acid]	223 °C (dec.)
Cc1cc(SC(C)c2ccc3nc(-c4ccc(C(F)(F)F)cc4)sc3c2)ccc1OCC(=O)O (racemic) [Example 62, (+/−)-2-Methyl-4-{1-[2-(4-trifluoromethylphenyl)benzothiazol-6-yl]ethylsulfanyl}phenoxyacetic Acid]	170 to 173 °C
CCc1cc(SCc2ccnc3oc(-c4ccc(C(F)(F)F)cc4)nc23)ccc1OCC(=O)O [Example 97, 2-Ethyl-4-[2-(4-trifluoromethylphenyl)oxazolo[5,4-b]pyridin-7-ylmethylsulfanyl]phenoxyacetic Acid]	59 to 62 °C
CCc1cc(SC(C)(C)c2cccc3nc(-c4ccc(C(F)(F)F)cc4)oc23)ccc1OCC(=O)O [Example 77, 2-Ethyl-4-{1-methyl-1-[2-(4-trifluoromethylphenyl)benzooxazol-7-yl]ethylsulfanyl}phenoxyacetic Acid]	122 to 125 °C
O=C(O)Cc1csc2cc(SCc3ccnc4oc(-c5ccc(C(F)(F)F)cc5)nc34)ccc12 [Example 98, 6-[2-(4-Trifluoromethylphenyl)oxazolo[5,4-b]pyridine-7-ylmethylsulfanyl]benzo[b]thiophen-3-ylacetic Acid]	203 to 205 °C
Cc1cc(OC(C)c2cccc3nc(-c4ccc(C(F)(F)F)cc4)oc23)ccc1CCC(=O)O (racemic) [Example 83, (+/−)-3-(2-Methyl-4-{1-[2-(4-trifluoromethylphenyl)benzooxazol-7-yl]ethoxy}phenyl)propionic Acid]	142 to 144 °C
CCc1cc(OCc2ccc3sc(-c4ccc(C(F)(F)F)cc4)nc3c2)ccc1CCC(=O)O [Example 55, 3-{2-Ethyl-4-[2-(4-trifluoromethylphenyl)benzothiazol-5-ylmethoxy]phenyl}propionic Acid]	188 to 190 °C
CCc1cc(SCc2cccc3oc(-c4ccc(C(F)(F)F)cc4)nc23)ccc1OCC(=O)O [Example 67, 2-Ethyl-4-[2-(4-trifluoromethylphenyl)benzooxazol-4-ylmethylsulfanyl]phenoxyacetic Acid]	127 to 128 °C
CCc1cc(OCc2ccc3nc(-c4ccc(C(F)(F)F)cc4)sc3c2)ccc1CCC(=O)O [Example 61, 3-{2-Ethyl-4-[2-(4-trifluoromethylphenyl)benzothiazol-6-ylmethoxy]phenyl}propionic Acid]	203 to 205 °C
CCc1cc(SCc2cccc3nc(-c4ccc(C(F)(F)F)cc4)sc23)ccc1OCC(=O)O [Example 45, 2-Ethyl-4-[2-(4-trifluoromethylphenyl)benzothiazol-7-ylmethylsulfanyl]phenoxyacetic Acid]	160 to 164 °C
O=C(O)Cc1csc2cc(SCc3cccc4nc(-c5ccc(C(F)(F)F)cc5)sc34)ccc12 [Example 47, 6-[2-(4-Trifluoromethylphenyl)benzothiazol-7-ylmethylsulfanyl]benzo[b]thiophen-3-ylacetic Acid]	201 to 204 °C
CC(C)(Sc1ccc2c(CC(=O)O)csc2c1)c1cccc2nc(-c3ccc(C(F)(F)F)cc3)oc12 [Example 78, 6-{1-Methyl-1-[2-(4-trifluoromethylphenyl)benzooxazol-7-yl]ethylsulfanyl}benzo[b]thiophen-3-ylacetic Acid]	110 to 113 °C
CCc1cc(OC(C)c2cccc3nc(-c4ccc(C(F)(F)F)cc4)oc23)ccc1CCC(=O)O (racemic) [Example 84, (+/−)-3-(2-Ethyl-4-{1-[2-(4-trifluoromethylphenyl)benzooxazol-7-yl]ethoxy}phenyl)propionic Acid]	60 to 63 °C
O=C(O)Cc1csc2cc(SCc3cccc4nc(-c5ccc(C(F)(F)F)cc5)oc34)ccc12 [Example 71, 6-[2-(4-Trifluoromethylphenyl)benzooxazol-7-ylmethylsulfanyl]benzo[b]thiophen-3-ylacetic Acid]	208 to 210 °C
Cc1cc(SCc2cccc3nc(-c4ccc(C(F)(F)F)cc4)oc23)ccc1OCC(=O)O [Example 68, 2-Methyl-4-[2-(4-trifluoromethylphenyl)-benzooxazol-7-ylmethylsulfanyl]-phenoxyacetic Acid]	180 to 182 °C
O=C(O)Cc1cccc(SCc2ccnc3oc(-c4ccc(C(F)(F)F)cc4)nc23)c1 [Example 99, 3-[2-(4-Trifluoromethylphenyl)oxazolo[5,4-b]pyridin-7-ylmethylsulfanyl]phenylacetic Acid]	164 to 166 °C
Cc1cc(SC(C)c2cccc3nc(-c4ccc(C(F)(F)F)cc4)oc23)ccc1OCC(=O)O (racemic) [Example 79, (+/−)-2-Methyl-4-{1-[2-(4-trifluoromethylphenyl)benzooxazol-7-yl]ethylsulfanyl}phenoxyacetic Acid]	134 to 138 °C
